According to the NIST ThermoML archive (doi:10.1016/j.fluid.2017.04.006):
Numbers after ± are expanded uncertainties.

What was measured:
[1] = Molar enthalpy of transition or fusion; details: DSC
[2] = DSC
[3] = xn = mol fraction of the nth substance listed; details: 298.15 K, 97.59 kPa, Liquid, Vibrating tube method

Question: With `CS(=O)(=O)[O-].[NH4+]` [ammonium methanesulfonate] as the molecule, how does the “Molar enthalpy of transition or fusion” value ([1]; Crystal 1) read?
Answer: Its value is 2.03 ± 0.12 kcal/mol.

Question: And the “Molar enthalpy of transition or fusion” value ([1]; Crystal 2)?
Answer: The value was 2.32 ± 0.0717 kcal/mol.

Question: And the Triple point temperature ([2]; Crystal 1)?
Answer: Its Triple point temperature is 470.05 ± 1.8 K.

Question: What about the Triple point temperature ([2]; Crystal 2) of the same molecule?
Answer: Its Triple point temperature is 463.05 ± 1.2 K.

Question: What does the source list for `CS(=O)(=O)[O-].[Na+]` [sodium methanesulfonate] + O?
Answer: mass density ([3]; x1 = 0.008): 1025 ± 5.6 kg/m3; mass density ([3]; x1 = 0.0188): 1059.9 ± 5.9 kg/m3; mass density ([3]; x1 = 0.0358): 1110.4 ± 6.2 kg/m3; mass density ([3]; x1 = 0.0438): 1132.7 ± 6.4 kg/m3; mass density ([3]; x1 = 0.0621): 1179.8 ± 6.6 kg/m3; mass density ([3]; x1 = 0.0743): 1209.3 ± 6.8 kg/m3; mass density ([3]; x1 = 0.0952): 1255.7 ± 7 kg/m3; mass density ([3]; x1 = 0.1087): 1283.5 ± 7.1 kg/m3; mass density ([3]; x1 = 0.1247): 1313.8 ± 7.2 kg/m3

Question: Which “Molar enthalpy of transition or fusion” value ([1]; Crystal) does the source give for `CS(=O)(=O)[O-].[Na+]` [sodium methanesulfonate] here?
Answer: The value was 5.75 ± 0.129 kcal/mol.

Question: What about the Triple point temperature ([2]; Crystal) of the same molecule?
Answer: Its Triple point temperature is 625.95 ± 0.8 K.

Question: What does the source list for `CS(=O)(=O)[O-].[NH4+]` [ammonium methanesulfonate] + O?
Answer: mass density ([3]; x1 = 0.0085): 1014.9 ± 5.5 kg/m3; mass density ([3]; x1 = 0.0178): 1033.1 ± 5.6 kg/m3; mass density ([3]; x1 = 0.0275): 1050.8 ± 5.7 kg/m3; mass density ([3]; x1 = 0.0381): 1068.7 ± 5.8 kg/m3; mass density ([3]; x1 = 0.051): 1088.7 ± 5.8 kg/m3; mass density ([3]; x1 = 0.0648): 1108.4 ± 5.9 kg/m3; mass density ([3]; x1 = 0.0951): 1146.2 ± 5.9 kg/m3; mass density ([3]; x1 = 0.1144): 1166.9 ± 5.9 kg/m3; mass density ([3]; x1 = 0.1387): 1190.3 ± 5.8 kg/m3
